Test results reported in the supplement of paper PMC10307832.

Columns and labels:
Assay in all cases: relative viability (nuclei count vs DMSO), 5 days (fraction); higher = more cells survive
[1] = compound: C1CC(C2=C(C1)C3=C(N2)C=CC(=C3)Cl)C(=O)N [Selisistat] + Cc1nc(Nc2ncc(C(=O)Nc3c(C)cccc3Cl)s2)cc(N2CCN(CCO)CC2)n1 [Dasatinib] (partner 0.075 µM)
Procedure, shortened: (§1)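 Cells from lung cancer lines were seeded into 1536-well plates and, one day later, dosed by pin tool. Treatments were either a single drug or a fixed dose of an anchor drug with five library-drug doses (not always all listed) in √10 steps. After 5 days, nuclei were stained in a one-step fixation (final 0.05% Triton X-100, 1% formaldehyde, 1 ug/ml Hoechst) and counted on 4× images, and relative viability is the treated-to-vehicle nuclei ratio, as the median of duplicate plates.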

[2] = compound: c1ccc2c(CCNc3ccc(Nc4ccncc4)cc3)c[nH]c2c1 [Serdemetan] + CC(=O)Nc1cccc(-n2c(=O)n(C3CC3)c(=O)c3c(Nc4ccc(I)cc4F)n(C)c(=O)c(C)c32)c1 [Trametinib] (partner 0.02 µM)
Procedure, shortened: as §1

[3] = compound: c1ccc2c(CCNc3ccc(Nc4ccncc4)cc3)c[nH]c2c1 [Serdemetan] + COc1cc2c(Oc3ccc(NC(=O)C4(C(=O)Nc5ccc(F)cc5)CC4)cc3F)ccnc2cc1OCCCN1CCOCC1 [Foretinib] (partner 0.25 µM)
Procedure, shortened: as §1

[4] = compound: c1ccc2c(CCNc3ccc(Nc4ccncc4)cc3)c[nH]c2c1 [Serdemetan] + CS(=O)(=O)N1CCN(Cc2cc3nc(-c4cccc5[nH]ncc45)nc(N4CCOCC4)c3s2)CC1 [Pictilisib] (partner 1 µM)
Procedure, shortened: as §1

Cell Line | relative viability ([1]; first compound 0.4 µM) | relative viability ([1]; first compound 1.265 µM) | relative viability ([1]; first compound 4 µM) | relative viability ([1]; first compound 12.65 µM) | relative viability ([1]; first compound 40 µM) | relative viability ([2]; first compound 0.04 µM) | relative viability ([2]; first compound 0.1265 µM) | relative viability ([2]; first compound 0.4 µM) | relative viability ([2]; first compound 1.265 µM) | relative viability ([2]; first compound 4 µM) | relative viability ([3]; first compound 0.04 µM) | relative viability ([3]; first compound 0.1265 µM) | relative viability ([3]; first compound 0.4 µM) | relative viability ([3]; first compound 1.265 µM) | relative viability ([3]; first compound 4 µM) | relative viability ([4]; first compound 0.04 µM) | relative viability ([4]; first compound 0.1265 µM) | relative viability ([4]; first compound 0.4 µM) | relative viability ([4]; first compound 1.265 µM) | relative viability ([4]; first compound 4 µM)
LU99A | 0.46 | 0.634 | 0.606 | 0.546 | 0.655 | 0.574 | 0.453 | 0.483 | 0.277 | 0.224 | 0.881 | 0.702 | 0.487 | 0.245 | 0.223 | 0.336 | 0.33 | 0.338 | 0.2 | 0.218
NCI-H1355 | 0.684 | 0.688 | 0.519 | 0.65 | 0.789 | 0.411 | 0.478 | 0.367 | 0.394 | 0.374 | 0.963 | 0.955 | 0.798 | 0.907 | 0.66 | 0.456 | 0.491 | 0.405 | 0.445 | 0.435
HCC-78 | 0.486 | 0.628 | 0.293 | 0.421 | 0.414 | 0.725 | 0.731 | 0.796 | 0.688 | 0.552 | 0.531 | 0.524 | 0.463 | 0.422 | 0.426 | 0.207 | 0.201 | 0.155 | 0.192 | 0.245
NCI-H1563 | 0.496 | 0.443 | 0.319 | 0.438 | 0.549 | – | – | – | – | – | 0.82 | 0.897 | 0.745 | 0.69 | 0.64 | 0.613 | 0.665 | 0.664 | 0.549 | 0.628
HCC-15 | 0.716 | 0.625 | – | 0.594 | 0.613 | 0.402 | 0.397 | 0.361 | 0.334 | 0.317 | 1 | 0.993 | 0.944 | 0.854 | 0.707 | 0.753 | 0.821 | 0.708 | 0.567 | 0.638
EKVX | 0.575 | 0.509 | – | 0.409 | 0.392 | 0.45 | 0.396 | – | – | 0.268 | 1 | 0.82 | 0.424 | – | 0.858 | 0.532 | 0.414 | 0.352 | 0.441 | 0.425
NCI-H2087 | 1.08 | 0.837 | – | 0.82 | 0.777 | 0.223 | 0.185 | 0.191 | 0.168 | 0.169 | 1.01 | 0.92 | 0.858 | 0.447 | 0.355 | 0.961 | 0.966 | 0.814 | 0.493 | 0.422
LK-2 | 0.211 | 0.307 | 0.322 | 0.266 | 0.287 | 0.697 | 0.79 | 0.809 | 0.752 | 0.757 | 1.29 | 1.13 | 1.47 | 1.16 | 0.41 | 0.479 | 0.578 | 0.687 | 0.362 | 0.301
NCI-H1437 | 0.399 | 0.349 | – | 0.331 | 0.514 | 0.466 | 0.527 | 0.526 | 0.372 | 0.424 | 1.31 | 1.19 | 1.27 | 1.08 | 0.963 | 0.469 | 0.409 | 0.454 | 0.492 | 0.342
